13 compounds from PubChem BioAssay AID1259408 (Genetic Toxicology Data Bank (GENE-TOX), 2018) can be followed below.

The series deals with GENE-TOX genotoxicity assays, various organisms and cells. The experiment in a line: GENE-TOX mutagenicity studies. As to conditions: for call: Assay Type: In vivo carcinogenicity studies.
The mark [1] stands for this setting: Species/Cell Type: Escherichia coli polA (W3119 vs P3478), Assay Type: Rec-assay, DNA effects (bacterial DNA repair), Assay Code: RE1-, Evaluation Type: Evaluation A (Pre-1980).
Setting [2] is: Species/Cell Type: Nonhuman, Assay Type: Sister-chromatid exchange (SCE) in vitro, Assay Code: SC2+D, Dose Response: With dose response, Evaluation Type: Evaluation A (Pre-1980).
The mark [3] stands for this setting: Species/Cell Type: Salmonella typhimurium (one or more of the five standard strains: TA98, TA100, TA1535, TA1537, and TA1538), Assay Type: Histidine reverse gene mutation, Ames assay, Assay Code: SAL+*, Activation: With metabolic activation, Evaluation Type: Evaluation A (Pre-1980).
Where [4] appears, read: Species/Cell Type: Salmonella typhimurium (one or more of the five standard strains: TA98, TA100, TA1535, TA1537, and TA1538), Assay Type: Histidine reverse gene mutation, Ames assay, Assay Code: SALT, Evaluation Type: Evaluation A (Pre-1980).

Active and inactive are the calls of the source. How the calls were made is not given here.

`CCN(CC)N=O`: the mutagenic call by setting is: (Species/Cell Type: Chinese hamster lung (V79) cells, Assay Type: Forward gene mutation at the HPRT or ouabain locus, Assay Code: V79+, Evaluation Type: Evaluation A (Pre-1980)) “active; positive”; (Species/Cell Type: Chinese hamster ovary (CHO) cells, Assay Type: Forward gene mutation at the HPRT locus, Assay Code: CHO+*, Activation: With metabolic activation, Evaluation Type: Evaluation B (Post-1980)) “active; positive”; (Species/Cell Type: Drosophila melanogaster, Assay Type: Sex-linked recessive lethal gene mutation, Assay Code: SRL+, Evaluation Type: Evaluation A (Pre-1980)) “active; positive”; (Species/Cell Type: Drosophila melanogaster, Sex: Male, Assay Type: Heritable translocation test, chromosome aberrations, Assay Code: DHTT, Evaluation Type: Evaluation A (Pre-1980)) “no conclusion”; (Species/Cell Type: Escherichia coli polA (W3110 vs P3478), Assay Type: Rec-assay, DNA effects (bacterial DNA repair), Assay Code: RE2+, Evaluation Type: Evaluation A (Pre-1980)) “active; positive”; under setting [1], “inactive; negative”. The mutagenic call (Species/Cell Type: Fischer rat embryo (RLV/1706) cells, Assay Type: Cell transformation, viral enhanced, Assay Code: CTR+, Evaluation Type: Evaluation A (Pre-1980)) is “active; positive”; the mutagenic call (Species/Cell Type: Human diploid fibroblasts, Assay Type: Unscheduled DNA synthesis (UDS) in vitro, DNA effects, Assay Code: UDHT, Evaluation Type: Evaluation A (Pre-1980)) is reported as “no conclusion”; the mutagenic call (Species/Cell Type: Human lymphocytes, Assay Type: Sister-chromatid exchange (SCE) in vitro, Assay Code: SCL+D*, Activation: With metabolic activation, Dose Response: With dose response, Evaluation Type: Evaluation B (Post-1980)) is “active; positive”; the mutagenic call (Species/Cell Type: Human lymphocytes, Assay Type: Sister-chromatid exchange (SCE) in vitro, Assay Code: SCL-, Evaluation Type: Evaluation A (Pre-1980)) was “inactive; negative”; the mutagenic call (Species/Cell Type: Human, Assay Type: Sister-chromatid exchange (SCE) in vitro, Assay Code: SC1+D*, Activation: With metabolic activation, Dose Response: With dose response, Evaluation Type: Evaluation B (Post-1980)) is “active; positive”; the mutagenic call (Species/Cell Type: Human, Assay Type: Sister-chromatid exchange (SCE) in vitro, Assay Code: SC1-, Evaluation Type: Evaluation A (Pre-1980)) is “inactive; negative”. Besides, the mutagenic call runs as follows: (Species/Cell Type: Mammalian polychromatic erythrocytes, Assay Type: Micronucleus test, chromosome aberrations, Assay Code: MNTT, Evaluation Type: Evaluation A (Pre-1980)) “no conclusion”; (Species/Cell Type: Mouse germ cells, Sex: Male, Assay Type: Unscheduled DNA synthesis (UDS) in vivo, DNA effects, Assay Code: UDT-, Evaluation Type: Evaluation A (Pre-1980)) “inactive; negative”; (Species/Cell Type: Mouse lymphoma (L5178Y) cells, Assay Type: Forward gene mutation at the thymidine kinase (TK) locus, chromosome aberrations, Assay Code: L51+*, Activation: With metabolic activation, Evaluation Type: Evaluation A (Pre-1980)) “active; positive”; (Species/Cell Type: Mouse, Sex: Female, Assay Type: Spot test, gene mutation, Assay Code: MST-, Evaluation Type: Evaluation A (Pre-1980)) “inactive; negative”; (Species/Cell Type: Mouse, Sex: Male, Assay Type: Specific locus test, gene mutation, Assay Code: SLT-, Evaluation Type: Evaluation A (Pre-1980)) “inactive; negative”; (Species/Cell Type: Neurospora crassa, Assay Type: Forward gene mutation, Assay Code: NEF+, Evaluation Type: Evaluation A (Pre-1980)) “active; positive”. Further, the mutagenic call runs as follows: (Species/Cell Type: Neurospora crassa, Assay Type: Reverse gene mutation, Assay Code: NER+, Evaluation Type: Evaluation A (Pre-1980)) “active; positive”; (Species/Cell Type: Nonhuman, Assay Type: Chromosome aberrations in vitro, Assay Code: CY&+*, Activation: With metabolic activation, Evaluation Type: Evaluation A (Pre-1980)) “active; positive”; under setting [2], “active; positive”; (Species/Cell Type: Nonhuman, Assay Type: Sister-chromatid exchange (SCE) in vivo, Assay Code: SC3+, Evaluation Type: Evaluation B (Post-1980)) “active; positive”; (Species/Cell Type: Nonhuman, Assay Type: Sister-chromatid exchange (SCE) in vivo, Assay Code: SC3+D, Dose Response: With dose response, Evaluation Type: Evaluation A (Pre-1980)) “active; positive”; (Species/Cell Type: Rat primary hepatocytes, Assay Type: Unscheduled DNA synthesis (UDS) in vitro, DNA effects, Assay Code: UDP+, Evaluation Type: Evaluation A (Pre-1980)) “active; positive”. The mutagenic call reads like this: (Species/Cell Type: Rodents, Sex: Male, Assay Type: Dominant lethal test, Assay Code: DLT-, Evaluation Type: Evaluation A (Pre-1980)) “inactive; negative”; (Species/Cell Type: Saccharomyces cerevisiae, Assay Type: Forward gene mutation, Assay Code: YEF+*, Activation: With metabolic activation, Evaluation Type: Evaluation A (Pre-1980)) “active; positive”; (Species/Cell Type: Saccharomyces cerevisiae, Assay Type: Mitotic recombination or gene conversion, Assay Code: YEH+, Evaluation Type: Evaluation A (Pre-1980)) “active; positive”; under setting [3], “active; positive”; (Species/Cell Type: Salmonella typhimurium, Escherichia coli, Serratia marcesens, Chinese hamster lung (V79) cells, Assay Type: Forward and reverse gene mutation, host-mediated assay, Assay Code: HM1+, Evaluation Type: Evaluation A (Pre-1980)) “active; positive”; (Species/Cell Type: Syrian hamster embryo (SHE) cells, Assay Type: Cell transformation, clonal assay, Assay Code: CTC+*, Activation: With metabolic activation, Evaluation Type: Evaluation A (Pre-1980)) “active; positive”. Moreover, under “Species/Cell Type: Nonhuman, Assay Code: CCG+, Evaluation Type: Evaluation A (Pre-1980)”, the call was “active; positive”.

Take `O=[N+]([O-])c1cccc2ncccc12`: the mutagenic call (Species/Cell Type: Salmonella typhimurium (one or more of the five standard strains: TA98, TA100, TA1535, TA1537, and TA1538), Assay Type: Histidine reverse gene mutation, Ames assay, Assay Code: SAL+, Evaluation Type: Evaluation A (Pre-1980)) is “active; positive”.

As to `O=C(O)c1cc(N=Nc2ccc([N+](=O)[O-])cc2)ccc1O`, under setting [4], the mutagenic call was “no conclusion”.

As for `c1ccc2cnccc2c1`, the mutagenic call under setting [4] is listed as “no conclusion”.

For `CNC(=O)Nc1nc(-c2ccc(OC)cc2)cs1`, the mutagenic call (Species/Cell Type: Salmonella typhimurium, Assay Type: Forward and reverse gene mutation, host-mediated assay, Assay Code: HMAT, Evaluation Type: Evaluation A (Pre-1980)) is listed as “no conclusion”.

`N=c1ccn(O)c2ccccc12`: the mutagenic call was “inactive; negative” under setting [1]; “active; positive” (Species/Cell Type: Nonhuman, Assay Type: Chromosome aberrations in vitro, Assay Code: CY&+D, Dose Response: With dose response, Evaluation Type: Evaluation A (Pre-1980)); “active; positive” under setting [2]. Further, the call (Species/Cell Type: Nonhuman, Assay Code: CCGT, Evaluation Type: Evaluation A (Pre-1980)) is recorded as “no conclusion”.

On to `CCN(Cc1cccc(S(=O)(=O)O)c1)c1ccc(C(=C2C=CC(=[N+](CC)Cc3cccc(S(=O)(=O)[O-])c3)C=C2)c2ccccc2)cc1`, for which, for the setting “Species/Cell Type: Bacillus subtilis (H17 vs M45), Assay Type: Rec-assay, spot test, DNA effects (bacterial DNA repair), Assay Code: REWT, Evaluation Type: Evaluation A (Pre-1980)”, the mutagenic call is reported as “no conclusion”.

Consider `COc1cc2c(c3oc(=O)c4c(c13)CC[C@@H]4O)[C@@H]1C=CO[C@@H]1O2`, for which the mutagenic call runs as follows: (Species/Cell Type: Human diploid fibroblasts, Assay Type: Unscheduled DNA synthesis (UDS) in vitro, DNA effects, Assay Code: UDH+D, Dose Response: With dose response, Evaluation Type: Evaluation A (Pre-1980)) “active; positive”; under setting [3], “active; positive”.

As for `CN(C)C(=S)SSC(=S)N(C)C`, the mutagenic call runs as follows: (Species/Cell Type: Bacillus subtilis (H17 vs M45), Assay Type: Rec-assay, spot test, DNA effects (bacterial DNA repair), Assay Code: REW+, Evaluation Type: Evaluation A (Pre-1980)) “active; positive”; (Species/Cell Type: Mammalian polychromatic erythrocytes, Assay Type: Micronucleus test, chromosome aberrations, Assay Code: MNT+, Evaluation Type: Evaluation A (Pre-1980)) “active; positive”.

As for `CCOC(=O)CC(SP(=O)(OC)OC)C(=O)OCC` (centres undefined), the call (Species/Cell Type: Nonhuman, Assay Code: CCG-, Evaluation Type: Evaluation A (Pre-1980)) was “inactive; negative”. The mutagenic call (Species/Cell Type: Nonhuman, Assay Type: Sister-chromatid exchange (SCE) in vitro, Assay Code: SC2+D, Dose Response: With dose response, Evaluation Type: Evaluation B (Post-1980)) was “active; positive”.

Turning to `CCS(=O)CCSP(=S)(OC)OC` (centres undefined), the mutagenic call (Species/Cell Type: Drosophila melanogaster, Assay Type: Sex-linked recessive lethal gene mutation, Assay Code: SRLT, Evaluation Type: Evaluation A (Pre-1980)) is recorded as “no conclusion”.

In the case of `Nc1ccn([C@H]2C[C@H](O)[C@@H](CO)O2)c(=O)n1`, the mutagenic call is “inactive; negative” (Species/Cell Type: Chinese hamster lung (V79) cells, Assay Type: Forward gene mutation at the HPRT or ouabain locus, Assay Code: V79-, Evaluation Type: Evaluation A (Pre-1980)); “inactive; negative” (Species/Cell Type: Glycine max (soybean), Assay Type: Gene mutation, Assay Code: GLM-, Evaluation Type: Evaluation A (Pre-1980)); “no conclusion” (Species/Cell Type: Human lymphocytes, Assay Type: Sister-chromatid exchange (SCE) in vitro, Assay Code: SCLT, Evaluation Type: Evaluation A (Pre-1980)); “no conclusion” (Species/Cell Type: Human, Assay Type: Sister-chromatid exchange (SCE) in vitro, Assay Code: SC1T, Evaluation Type: Evaluation A (Pre-1980)); “no conclusion” (Species/Cell Type: Nonhuman, Assay Type: Sister-chromatid exchange (SCE) in vitro, Assay Code: SC2T, Evaluation Type: Evaluation B (Post-1980)).

Regarding `COC[CH2][Hg][Cl]`, the mutagenic call runs as follows: (Species/Cell Type: Drosophila melanogaster, Assay Type: Aneuploidy, sex chromosome gain, chromosome aberrations, Assay Code: DAG-F-M, Evaluation Type: Evaluation A (Pre-1980)) “inactive; negative”; (Species/Cell Type: Drosophila melanogaster, Assay Type: Aneuploidy, whole sex chromosome loss, chromosome aberrations, Assay Code: DAC-M-F, Evaluation Type: Evaluation A (Pre-1980)) “inactive; negative”.
